Results as given in US20230085307A1, “PYRIDAZINONE COMPOUND AND HERBICIDE” (NISSAN CHEMICAL CORPORATION, priority 2019, published 2023).

Tests used:
[1] = system: late watergrass; assay: Test Example 1: herbicidal activity, application before weed generation under submerged conditions (Table 16, symbol A); type: in vivo, late watergrass (Echinochloa oryzicola); conditions: amount of applied herbicide 320 g/ha
Method in brief: (§1)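 Emulsion formulation, water-diluted to set dose, was put onto the flooded surface (4 cm depth, alluvial soil) the same day weeds were sown and 2.5-leaf rice transplanted. After 3 weeks at 25-30 °C under glass, each species was rated 0 (≤5% kill) to 5 (≥90% kill).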

[2] = system: Japanese bulrush; assay: Test Example 1: herbicidal activity, application before weed generation under submerged conditions (Table 16, symbol B); type: in vivo, Japanese bulrush (Schoenoplectus juncoides); conditions: amount of applied herbicide 320 g/ha
Method in brief: as §1

[3] = system: oval-leafed pondweed; assay: Test Example 1: herbicidal activity, application before weed generation under submerged conditions (Table 16, symbol C); type: in vivo, oval-leafed pondweed (Monochoria vaginalis); conditions: amount of applied herbicide 320 g/ha
Method in brief: as §1

[4] = system: late watergrass; assay: Test Example 2: herbicidal activity, application during weed generation under submerged conditions (Table 17, symbol A); type: in vivo, late watergrass (Echinochloa oryzicola); conditions: AAH 320 g/ha; application during weed generation, submerged conditions
Method in brief: (§2)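 3-wk visual-criteria score after one water-surface dose. Emulsion formulation, water-diluted to set rate; applied at 1–2 leaf stage; alluvial soil, 4 cm standing water; seeds co-sown; greenhouse 25–30° C.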

[5] = system: Japanese bulrush; assay: Test Example 2: herbicidal activity, application during weed generation under submerged conditions (Table 17, symbol B); type: in vivo, Japanese bulrush (Schoenoplectus juncoides); conditions: AAH 320 g/ha; application during weed generation, submerged conditions
Method in brief: as §2

[6] = system: oval-leafed pondweed; assay: Test Example 2: herbicidal activity, application during weed generation under submerged conditions (Table 17, symbol C); type: in vivo, oval-leafed pondweed (Monochoria vaginalis); conditions: AAH 320 g/ha; application during weed generation, submerged conditions
Method in brief: as §2

[7] = system: southern crabgrass; assay: Test Example 4: herbicidal effect by soil treatment (Table 19, symbol F); type: in vivo, southern crabgrass (Digitaria ciliaris); conditions: amount of applied herbicide 320 g/ha
Method in brief: (§3)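 Seeds were sown in sterilized diluvial soil and covered with about 1.5 cm of soil. An emulsion formulation diluted with water to a predetermined herbicide amount was sprayed evenly onto the soil surface. Plants grew in a greenhouse at 25° C. to 30° C., and the effect was scored three weeks after application using criteria from an earlier test.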

[8] = system: green foxtail; assay: Test Example 4: herbicidal effect by soil treatment (Table 19, symbol G); type: in vivo, green foxtail (Setaria viridis); conditions: amount of applied herbicide 320 g/ha
Method in brief: as §3

[9] = system: barnyard grass; assay: Test Example 4: herbicidal effect by soil treatment (Table 19, symbol H); type: in vivo, barnyard grass (Echinochloa crus-galli); conditions: amount of applied herbicide 320 g/ha
Method in brief: as §3

[10] = system: wild oat; assay: Test Example 4: herbicidal effect by soil treatment (Table 19, symbol I); type: in vivo, wild oat (Avena fatua); conditions: amount of applied herbicide 320 g/ha
Method in brief: as §3

[11] = system: blackgrass; assay: Test Example 4: herbicidal effect by soil treatment (Table 19, symbol J); type: in vivo, blackgrass (Alopecurus myosuroides); conditions: amount of applied herbicide 320 g/ha
Method in brief: as §3

[12] = system: Italian ryegrass; assay: Test Example 4: herbicidal effect by soil treatment (Table 19, symbol K); type: in vivo, Italian ryegrass (Lolium multiflorum); conditions: amount of applied herbicide 320 g/ha
Method in brief: as §3

[13] = system: windgrass; assay: Test Example 4: herbicidal effect by soil treatment (Table 19, symbol L); type: in vivo, windgrass (Apera spica-venti); conditions: amount of applied herbicide 320 g/ha
Method in brief: as §3

[14] = system: velvetleaf; assay: Test Example 4: herbicidal effect by soil treatment (Table 19, symbol M); type: in vivo, velvetleaf (Abutilon theophrasti); conditions: amount of applied herbicide 320 g/ha
Method in brief: as §3

[15] = system: redroot pigweed; assay: Test Example 4: herbicidal effect by soil treatment (Table 19, symbol N); type: in vivo, redroot pigweed (Amaranthus retroflexus); conditions: amount of applied herbicide 320 g/ha
Method in brief: as §3

[16] = system: lambsquarters; assay: Test Example 4: herbicidal effect by soil treatment (Table 19, symbol O); type: in vivo, lambsquarters (Chenopodium album); conditions: amount of applied herbicide 320 g/ha
Method in brief: as §3

[17] = system: chickweed; assay: Test Example 4: herbicidal effect by soil treatment (Table 19, symbol P); type: in vivo, common chickweed (Stellaria media); conditions: amount of applied herbicide 320 g/ha
Method in brief: as §3

[18] = system: false cleavers; assay: Test Example 4: herbicidal effect by soil treatment (Table 19, symbol Q); type: in vivo, false cleavers (Galium spurium); conditions: amount of applied herbicide 320 g/ha
Method in brief: as §3

[19] = system: persian speedwell; assay: Test Example 4: herbicidal effect by soil treatment (Table 19, symbol R); type: in vivo, Persian speedwell (Veronica persica); conditions: amount of applied herbicide 320 g/ha
Method in brief: as §3

[20] = system: southern crabgrass; assay: Test Example 5: herbicidal effect by foliage application, plastic box (Table 20, symbol F); type: in vivo, southern crabgrass (Digitaria ciliaris); conditions: foliage application, 320 g/ha, three weeks after application
Method in brief: (§4)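 Plants sown in sterilized diluvial soil and grown 14 days in a greenhouse at 25° C to 30° C, then sprayed on the foliage with the compound's emulsion diluted in water to a predetermined herbicide amount. Injury to weeds and crops scored three weeks after application on a visual rating scale.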

[21] = system: green foxtail; assay: Test Example 5: herbicidal effect by foliage application, plastic box (Table 20, symbol G); type: in vivo, green foxtail (Setaria viridis); conditions: foliage application, 320 g/ha, three weeks after application
Method in brief: as §4

[22] = system: barnyard grass; assay: Test Example 5: herbicidal effect by foliage application, plastic box (Table 20, symbol H); type: in vivo, barnyard grass (Echinochloa crus-galli); conditions: foliage application, 320 g/ha, three weeks after application
Method in brief: as §4

[23] = system: wild oat; assay: Test Example 5: herbicidal effect by foliage application, plastic box (Table 20, symbol I); type: in vivo, wild oat (Avena fatua); conditions: foliage application, 320 g/ha, three weeks after application
Method in brief: as §4

[24] = system: blackgrass; assay: Test Example 5: herbicidal effect by foliage application, plastic box (Table 20, symbol J); type: in vivo, blackgrass (Alopecurus myosuroides); conditions: foliage application, 320 g/ha, three weeks after application
Method in brief: as §4

[25] = system: Italian ryegrass; assay: Test Example 5: herbicidal effect by foliage application, plastic box (Table 20, symbol K); type: in vivo, Italian ryegrass (Lolium multiflorum); conditions: foliage application, 320 g/ha, three weeks after application
Method in brief: as §4

[26] = system: windgrass; assay: Test Example 5: herbicidal effect by foliage application, plastic box (Table 20, symbol L); type: in vivo, windgrass (Apera spica-venti); conditions: foliage application, 320 g/ha, three weeks after application
Method in brief: as §4

[27] = system: velvetleaf; assay: Test Example 5: herbicidal effect by foliage application, plastic box (Table 20, symbol M); type: in vivo, velvetleaf (Abutilon theophrasti); conditions: foliage application, 320 g/ha, three weeks after application
Method in brief: as §4

[28] = system: redroot pigweed; assay: Test Example 5: herbicidal effect by foliage application, plastic box (Table 20, symbol N); type: in vivo, redroot pigweed (Amaranthus retroflexus); conditions: foliage application, 320 g/ha, three weeks after application
Method in brief: as §4

[29] = system: lambsquarters; assay: Test Example 5: herbicidal effect by foliage application, plastic box (Table 20, symbol O); type: in vivo, lambsquarters (Chenopodium album); conditions: foliage application, 320 g/ha, three weeks after application
Method in brief: as §4

[30] = system: chickweed; assay: Test Example 5: herbicidal effect by foliage application, plastic box (Table 20, symbol P); type: in vivo, common chickweed (Stellaria media); conditions: foliage application, 320 g/ha, three weeks after application
Method in brief: as §4

[31] = system: false cleavers; assay: Test Example 5: herbicidal effect by foliage application, plastic box (Table 20, symbol Q); type: in vivo, false cleavers (Galium spurium); conditions: foliage application, 320 g/ha, three weeks after application
Method in brief: as §4

[32] = system: persian speedwell; assay: Test Example 5: herbicidal effect by foliage application, plastic box (Table 20, symbol R); type: in vivo, Persian speedwell (Veronica persica); conditions: foliage application, 320 g/ha, three weeks after application
Method in brief: as §4

CCCC(=O)Oc1c(C)nn(C)c(=O)c1-c1c(-c2ccc(F)cc2)sc2cc(OC)ccc12 [3-064]
Herbicidal effect, A: late watergrass [1]: 0 (Herbicidal rate of 5% or less (almost no effect)) | Herbicidal effect, B: Japanese bulrush [2]: 3 (Herbicidal rate of 40% or more and less than 70%) | Herbicidal effect, C: oval-leafed pondweed [3]: 4 (Herbicidal rate of 70% or more and less than 90%) | herbicidal effect rating, A: late watergrass [4]: 0 (Herbicidal rate of 5% or less (almost no effect)) | herbicidal effect rating, B: Japanese bulrush [5]: 1 (Herbicidal rate of 5% or more and less than 20%) | herbicidal effect rating, C: oval-leafed pondweed [6]: 3 (Herbicidal rate of 40% or more and less than 70%) | F: southern crabgrass, herbicidal effect grade [7]: 0 (Herbicidal rate of 5% or less (almost no effect)) | G: green foxtail, herbicidal effect grade [8]: 0 (Herbicidal rate of 5% or less (almost no effect)) | H: barnyard grass, herbicidal effect grade [9]: 0 (Herbicidal rate of 5% or less (almost no effect)) | I: wild oat, herbicidal effect grade [10]: 0 (Herbicidal rate of 5% or less (almost no effect)) | J: blackgrass, herbicidal effect grade [11]: 0 (Herbicidal rate of 5% or less (almost no effect)) | K: Italian ryegrass, herbicidal effect grade [12]: 0 (Herbicidal rate of 5% or less (almost no effect)) | L: windgrass, herbicidal effect grade [13]: 0 (Herbicidal rate of 5% or less (almost no effect)) | M: velvetleaf, herbicidal effect grade [14]: 0 (Herbicidal rate of 5% or less (almost no effect)) | N: redroot pigweed, herbicidal effect grade [15]: 2 (Herbicidal rate of 20% or more and less than 40%) | O: lambsquarters, herbicidal effect grade [16]: 3 (Herbicidal rate of 40% or more and less than 70%) | P: chickweed, herbicidal effect grade [17]: 4 (Herbicidal rate of 70% or more and less than 90%) | Q: false cleavers, herbicidal effect grade [18]: 0 (Herbicidal rate of 5% or less (almost no effect)) | R: persian speedwell, herbicidal effect grade [19]: 4 (Herbicidal rate of 70% or more and less than 90%) | F: southern crabgrass, herbicidal effect grade [20]: 0 (Herbicidal rate of 5% or less (almost no effect)) | G: green foxtail, herbicidal effect grade [21]: 0 (Herbicidal rate of 5% or less (almost no effect)) | H: barnyard grass, herbicidal effect grade [22]: 0 (Herbicidal rate of 5% or less (almost no effect)) | I: wild oat, herbicidal effect grade [23]: 0 (Herbicidal rate of 5% or less (almost no effect)) | J: blackgrass, herbicidal effect grade [24]: 0 (Herbicidal rate of 5% or less (almost no effect)) | K: Italian ryegrass, herbicidal effect grade [25]: 0 (Herbicidal rate of 5% or less (almost no effect)) | L: windgrass, herbicidal effect grade [26]: 0 (Herbicidal rate of 5% or less (almost no effect)) | M: velvetleaf, herbicidal effect grade [27]: 1 (Herbicidal rate of 5% or more and less than 20%) | N: redroot pigweed, herbicidal effect grade [28]: 0 (Herbicidal rate of 5% or less (almost no effect)) | O: lambsquarters, herbicidal effect grade [29]: 2 (Herbicidal rate of 20% or more and less than 40%) | P: chickweed, herbicidal effect grade [30]: 5 (Herbicidal rate of 90% or more (almost completely withered)) | Q: false cleavers, herbicidal effect grade [31]: 0 (Herbicidal rate of 5% or less (almost no effect)) | R: persian speedwell, herbicidal effect grade [32]: 4 (Herbicidal rate of 70% or more and less than 90%)
